Literature values as cited in US20160243146A1, “LEVIA : A New Injectable Parasiticidal Veterinary Formulation of Levamisole HCl and Ivermectin Solution” (priority 2015, published 2016).

What was measured:
[1] = dissolved in propylene glycol solvent

Ivermectin
period of release into the blood [1]: up to 14 days | solubility in water (room temperature): about 0.005 mg per ml | stability in water (water): unstable in water
